Measurements reported in US9549965B2, “Pharmaceutical composition for treating a microbial infection” (HELPERBY THERAPEUTICS LIMITED, priority 2010, dated 2017).
Counter-ions that a name gives are not always drawn.

Experiments:
[1] = test system: stationary phase E. coli; assay: Bactericidal activity against stationary phase E. coli (CFU counts); format: cell-based, Escherichia coli; details: for log reduction at 6.25 µg/mL / log reduction at 12.5 µg/mL / log reduction at 25 µg/mL: Escherichia coli, read-out: Log kill
Procedure: (§1) Escherichia coli K12; Gram negative; Reference strain.
(§2) Bacteria were grown in 10 ml of nutrient broth (No. 2 (Oxoid)) overnight at 37° C., with continuous shaking at 120 rpm. The overnight cultures were diluted (1000×) in 100 ml of growth medium and then incubated without shaking for 10 days. Viability of the bacteria was estimated by colony forming unit (CFU) counts at 2 hour intervals at the first 24 hours and at 12-24 hours afterwards. From serial 10-fold dilutions of the experimental cultures, 100 μl samples were added to triplicate plates of nutrient agar plates (Oxoid) and blood agar plates (Oxoid). Colony forming units (CFU) were counted after incubation of the plates at 37° C. for 24 hours.
(§3) Cultures incubated for more than 24 hours are in the stationary phase. For drug screening, 5-6 day old stationary phase cultures were used.
(§4) Different concentrations of each test compound were incubated with stationary phase cultures (5-6 day cultures) in 96 well plates for 24 or 48 hours. Bactericidal activity was then determined by taking CFU counts of the resulting cultures, as described above.

[2] = test system: log phase E. coli; assay: MIC against log phase E. coli; format: cell-based, Escherichia coli
Procedure: as §1
(§5) The above-described overnight cultures were diluted (1000×) with iso-sensitest broth. The cultures were then incubated at 37° C. with shaking for 1-2 hours to reach log CFU 6, which served as log phase cultures.
(§6) The bactericidal activity of the drugs against log phase cultures were determined by minimal inhibitory concentration (MIC) of the drugs, which is defined as the lowest concentration which inhibits visible growth. Different concentrations of each test compound were incubated with the log-phase cultures in 96 well plates for 24 hours. Bactericidal activity was then examined by taking a spectrophotometer reading (using a plate reader) at 405 nm.

[3] = test system: log phase E. coli; assay: Chequerboard analysis with polymyxin E against log phase E. coli; format: cell-based, Escherichia coli; details: for MIC: Escherichia coli
Procedure: as §1, §5, §6

[4] = test system: stationary phase S. aureus; assay: Bactericidal activity against stationary phase S. aureus (CFU counts); format: cell-based, Staphylococcus aureus; details: Staphylococcus aureus, read-out: Log Kill; for log reduction at 6.25 µg/mL: 6.25 μg/ml; for log reduction at 12.5 µg/mL: 12.5 μg/ml; for log reduction at 25 µg/mL: 25 μg/ml
Procedure: Staphylococcus aureus (Oxford strain); Gram positive; Reference strain.
as §2, §3, §4

[5] = test system: persistent E. coli; assay: Bactericidal activity against persistent E. coli selected by gentamicin; format: cell-based, Escherichia coli; details: Escherichia coli, read-out: Log Kill
Procedure: as §1
An antibiotic (gentamicin) was added to 5-6 day stationary-phase cultures to the final concentration of 50 to 100 μg/ml for 24 hours. After 24 hours of antibiotic treatment, the cells are washed 3 times with phosphate buffered saline (PBS), and then resuspended in PBS. The surviving bacterial cells are used as persisters. Viability is estimated by CFU counts. The persisters were then used in measurements of bactericidal activity for test compounds.
Different concentrations of each test compound were incubated with the (persister) cell suspension in 96 well plates for various periods of time (24 and 48 hours). Bactericidal activity was then determined by taking CFU counts of the resulting cultures, as described above.

[6] = Escherichia coli, read-out: MIC

Row | SMILES | MIC [2, 6] | log reduction at 6.25 µg/mL ([1]; 6.25 μg/ml) | log reduction at 12.5 µg/mL ([1]; 12.50 μg/ml) | log reduction at 25 µg/mL ([1]; 25.00 μg/ml) | log reduction at 6.25 µg/mL [4] | log reduction at 12.5 µg/mL [4] | log reduction at 25 µg/mL [4] | other results
1 | CCCCCCc1ccc(O)cc1O.Nc1c2ccccc2nc2ccccc12 [Acrisorcin] |  |  |  |  |  |  |  | Log Kill ([1]; 6.25 μg/ml): 6.14; Log Kill ([1]; 12.50 μg/ml): 6.14; Log Kill ([1]; 25.00 μg/ml): 6.14; MIC [2]: — (— signifies MIC higher than 50 μg/ml)
2 | CC(COc1ccccc1)N(CCCl)Cc1ccccc1 (stereo not drawn) [HT00800157, Phenoxybenzamine Hydrochloride] |  |  |  |  |  |  |  | MIC ([3]; alone): > 64 µg/mL; MIC ([3]; in combination with polymyxin E at 0.06 μg/ml): 64 µg/mL; MIC ([3]; in combination with polymyxin E at 0.25 μg/ml): 1 µg/mL; spectrophotometer reading ([3]; HT00800157 1 μg/ml alone): 1.52; spectrophotometer reading ([3]; HT00800157 2 μg/ml alone): 1.53; spectrophotometer reading ([3]; HT00800157 4 μg/ml alone): 1.60; spectrophotometer reading ([3]; HT00800157 8 μg/ml alone): 1.56; spectrophotometer reading ([3]; HT00800157 16 μg/ml alone): 1.56; spectrophotometer reading ([3]; HT00800157 32 μg/ml alone): 1.57; spectrophotometer reading ([3]; HT00800157 64 μg/ml alone): 1.60
3 | C1CCC(C(CC2CCCCN2)C2CCCCC2)CC1 (stereo not drawn) [Perhexiline maleate] | 10 µg/mL |  |  |  | 6.15 | 6.15 | 6.15 | log reduction at 6.25 µg/mL ([5]; 6.25 μg/ml): -0.01; log reduction at 12.5 µg/mL ([5]; 12.5 μg/ml): 0.04; log reduction at 25 µg/mL ([5]; 25 μg/ml): 6.21

Further lines, with some results ahead:

Row | MIC [2, 6] | SMILES | log reduction at 6.25 µg/mL ([1]; 6.25 μg/ml) | log reduction at 12.5 µg/mL ([1]; 12.50 μg/ml) | log reduction at 25 µg/mL ([1]; 25.00 μg/ml) | log reduction at 6.25 µg/mL [4] | log reduction at 12.5 µg/mL [4] | log reduction at 25 µg/mL [4] | other results
4 | > 50 µg/mL | COc1cccc2c1C(=O)c1c(O)c3c(c(O)c1C2=O)C[C@@](O)(C(=O)CO)C[C@@H]3O[C@H]1C[C@H](N)[C@H](O)[C@H](C)O1 [Doxorubicin] | 6.14 | 6.14 | 6.14 |  |  |  | 
5 | > 50 µg/mL | Oc1ccc(O)cc1 [Hydroquinone] | 6.14 | 6.14 | 6.14 | 6.15 | 6.15 | 6.15 | 
6 | > 50 µg/mL | COC(=O)C1=C(C)NC(C)=C(C(=O)OCC(C)C)C1c1ccccc1[N+](=O)[O-] (stereo not drawn) [Nisoldipine] |  |  |  | 0 | 6.15 | 6.15 | 
